Two compounds from ChEMBL document CHEMBL4312023, “Design of novel monoamine oxidase-B inhibitors based on piperine scaffold: Structure-activity-toxicity, drug-likeness and efflux transport studies” (Eur J Med Chem, 2020) can be followed below.

The target in data set [1] is T1, ATP-dependent translocase ABCB1 (Homo sapiens, UniProt P08183). Description: Inhibition of P-gp in human Caco2 cells assessed as decrease in Rho123 efflux by measuring decrease in ratio between fluorescence intensity of Zos-inhibited Rho123 accumulation and fluorescence intensity of non-inhibited Rho123 accumulation at 10 uM using Rho123 as substrate preincubated for 30 mins in presence of 5 uM P-gp inhibitor, Zos followed by incubation with Rhodamine 123 for 90 mins by fluorescence spectroscopy analysis. The note with it: 1.5 h. The data set is classed as cell-based. On the technique in general: Caco-2 cells form a polarised layer with tight junctions and transporters.

Data set [2] deals with T2, Amine oxidase [flavin-containing] B (Homo sapiens, UniProt P27338).
T2 sequence (P27338 whole entry): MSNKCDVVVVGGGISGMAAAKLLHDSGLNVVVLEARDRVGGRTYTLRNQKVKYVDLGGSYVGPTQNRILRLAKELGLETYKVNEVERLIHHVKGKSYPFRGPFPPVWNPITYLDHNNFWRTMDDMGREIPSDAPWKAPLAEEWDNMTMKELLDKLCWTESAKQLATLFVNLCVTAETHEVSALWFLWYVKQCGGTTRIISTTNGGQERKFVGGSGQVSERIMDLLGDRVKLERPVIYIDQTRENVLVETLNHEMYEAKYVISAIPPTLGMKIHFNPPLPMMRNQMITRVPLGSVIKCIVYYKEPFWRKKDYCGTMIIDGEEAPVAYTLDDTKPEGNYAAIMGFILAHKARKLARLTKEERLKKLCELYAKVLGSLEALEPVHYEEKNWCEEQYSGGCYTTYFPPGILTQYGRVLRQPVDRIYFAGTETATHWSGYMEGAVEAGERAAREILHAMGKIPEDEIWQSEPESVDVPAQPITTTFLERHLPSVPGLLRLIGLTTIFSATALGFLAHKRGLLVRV
Nature of the data set: Competitive inhibition of human microsomal MAO-B expressed in baculovirus infected BTI-TN-5B1-4 cells assessed as inhibition constant using kynuramine as substrate preincubated with substrate at varying concentrations for 10 mins followed by enzyme addition by Lineweaver-Burk plot analysis.

Data set [3] deals with T2, Amine oxidase [flavin-containing] B. Description: Reversible inhibition of human microsomal MAO-B expressed in baculovirus infected BTI-TN-5B1-4 cells assessed as 4-hydroxyquinoline formation using kynuramine as substrate incubated up to 140 mins by spectrophotometric analysis. The note with it: bti-tn-5b1-4, 140 min.
The nature of data set [4]: Cytotoxicity against human Caco2 cells assessed as cellular metabolic activity by measuring resazurin reduction at 10 to 50 uM incubated for 24 hrs followed by incubation with resazurin for 1 hr by fluorescence based assay (reference value: >85%). The note with it: Caco-2 cells, read-out: Activity. Type of data set: ADME, cell-based.
Data set [5] concerns the target T2, Amine oxidase [flavin-containing] B. Nature of the data set: Competitive inhibition of human microsomal MAO-B expressed in baculovirus infected BTI-TN-5B1-4 cells assessed as constant Vmax using kynuramine as substrate preincubated with substrate at varying concentrations for 10 mins followed by enzyme addition by Lineweaver-Burk plot analysis.
Data set [6] is described as follows: Chromatographic hydrophobicity index of compound at 250 uM at pH 7.4 by HPLC analysis. Type of data set: ADME. The note with it: pH 7.4, 250 µM.
The nature of data set [7]: Cytotoxicity against human SH-SY5Y cells assessed as cellular metabolic activity by measuring resazurin reduction at 10 to 50 uM incubated for 24 hrs followed by incubation with resazurin for 2 hrs by fluorescence based assay (reference value: >85%). Type of data set: ADME, cell-based. The note with it: SH-SY5Y cells, read-out: Activity.
Data set [8] can be described thus: Cytotoxicity against human Caco2 cells assessed as lysosomal activity by measuring neutral red uptake at 10 to 50 uM incubated for 24 hrs followed by incubation with neutral red solution for 1 hr by microplate reader analysis (reference value: >85%). Type of data set: cell-based. The note with it: Caco-2 cells, read-out: Activity.
The target in data set [9] is T2, Amine oxidase [flavin-containing] B. Description: biochemical. Type of data set: cell-based, BTI-TN-5B1-4.
Description: Inhibition of human microsomal MAO-B expressed in baculovirus infected BTI-TN-5B1-4 cells assessed as reduction in 4-hydroxyquinoline formation using kynuramine as substrate preincubated with substrate for 10 mins followed by enzyme addition by spectrophotometric analysis
Data set [10] in a line: Stability of compound in DMSO-d6 and D2O (7:3) measured after 30 mins to 1 hr in presence of glutathione by thiol trapping assay based 1H-NMR analysis. Type of data set: physicochemical.
Data set [11] deals with T2, Amine oxidase [flavin-containing] B. Nature of the data set: Competitive inhibition of human microsomal MAO-B expressed in baculovirus infected BTI-TN-5B1-4 cells assessed as increase in substrate Km using kynuramine as substrate preincubated with substrate at varying concentrations for 10 mins followed by enzyme addition by Lineweaver-Burk plot analysis.
Another data set is filed under the species Homo sapiens. Description: Selectivity index, ratio of IC50 for human microsomal MAO-A expressed in baculovirus infected […] cells to IC50 for human microsomal MAO-B expressed in baculovirus infected […] cells using kynuramine as substrate.
Data set [12] concerns the target T3, Amine oxidase [flavin-containing] A (Homo sapiens, UniProt P21397).
T3 sequence (P21397 whole entry): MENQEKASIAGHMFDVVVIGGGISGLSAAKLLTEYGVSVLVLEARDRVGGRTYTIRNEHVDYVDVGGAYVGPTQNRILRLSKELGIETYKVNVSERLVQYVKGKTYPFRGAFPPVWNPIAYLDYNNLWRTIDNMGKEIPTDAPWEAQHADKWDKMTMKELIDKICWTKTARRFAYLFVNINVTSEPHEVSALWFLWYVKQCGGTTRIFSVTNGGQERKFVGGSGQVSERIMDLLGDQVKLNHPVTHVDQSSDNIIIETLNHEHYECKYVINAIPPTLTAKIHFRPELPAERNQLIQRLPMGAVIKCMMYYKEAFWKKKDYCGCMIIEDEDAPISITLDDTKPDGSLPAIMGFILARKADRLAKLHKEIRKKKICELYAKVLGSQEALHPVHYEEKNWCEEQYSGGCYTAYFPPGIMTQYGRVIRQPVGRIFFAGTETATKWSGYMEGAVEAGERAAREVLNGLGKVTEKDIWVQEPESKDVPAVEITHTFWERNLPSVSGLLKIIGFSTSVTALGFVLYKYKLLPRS
The note with it: BTI-TN-5B1-4, human, read-out: INH.
Description: Inhibition of human microsomal MAO-A expressed in baculovirus infected BTI-TN-5B1-4 cells assessed as reduction in 4-hydroxyquinoline formation at 10 uM using kynuramine as substrate preincubated with substrate for 10 mins followed by enzyme inhibition by spectrophotometric analysis

The nature of data set [13]: Retention time of compound at pH 7.4 by LC-UV analysis. Type of data set: physicochemical. The note with it: buffer.
Data set [14] in a line: Chromatographic hydrophobicity index, log D of compound at 250 uM at pH 7.4 by HPLC analysis. The note with it: buffer. The data set is classed as physicochemical.
The nature of data set [15]: Cytotoxicity against human SH-SY5Y cells assessed as lysosomal activity by measuring neutral red uptake at 10 to 50 uM incubated for 24 hrs followed by incubation with neutral red solution for 2 hrs by microplate reader analysis (reference value: >85%). The data set is classed as cell-based. The note with it: SH-SY5Y cells, read-out: Activity.
For data set [16], the target named is T1, ATP-dependent translocase ABCB1. Description: Induction of P-gp in human Caco2 cells assessed as decrease in Rho123 intracellular accumulation by measuring increase in ratio between fluorescence intensity of Zos-inhibited Rho123 accumulation and fluorescence intensity of non-inhibited Rho123 accumulation at 10 uM using Rho123 as substrate preincubated for 30 mins in presence of 5 uM P-gp inhibitor, Zos followed by incubation with Rhodamine 123 for 90 mins by fluorescence spectroscopy analysis. Type of data set: cell-based. The note with it: 1.5 h.

For another data set, the system named is Caco-2. Nature of the data set: Effect on P-gp protein expression in human Caco-2 cells at 10 uM incubated for 30 mins. The data set is classed as functional, cell-based.
The subject of the next data set is SH-SY5Y. Nature of the data set: Induction of intracellular oxidative stress in human SH-SY5Y cells assessed as increase in reactive species level at 10 to 50 uM pretreated with DCFH-DA for 1.5 hrs followed by incubation with compound for 24 hrs by DCFH-DA dye based fluorescence assay relative to control. The data set is classed as cell-based.

The source made the active and inactive calls. No cut-off for these calls is given here. Bounds are passed on as bounds.

T1 sequence (P08183 whole entry): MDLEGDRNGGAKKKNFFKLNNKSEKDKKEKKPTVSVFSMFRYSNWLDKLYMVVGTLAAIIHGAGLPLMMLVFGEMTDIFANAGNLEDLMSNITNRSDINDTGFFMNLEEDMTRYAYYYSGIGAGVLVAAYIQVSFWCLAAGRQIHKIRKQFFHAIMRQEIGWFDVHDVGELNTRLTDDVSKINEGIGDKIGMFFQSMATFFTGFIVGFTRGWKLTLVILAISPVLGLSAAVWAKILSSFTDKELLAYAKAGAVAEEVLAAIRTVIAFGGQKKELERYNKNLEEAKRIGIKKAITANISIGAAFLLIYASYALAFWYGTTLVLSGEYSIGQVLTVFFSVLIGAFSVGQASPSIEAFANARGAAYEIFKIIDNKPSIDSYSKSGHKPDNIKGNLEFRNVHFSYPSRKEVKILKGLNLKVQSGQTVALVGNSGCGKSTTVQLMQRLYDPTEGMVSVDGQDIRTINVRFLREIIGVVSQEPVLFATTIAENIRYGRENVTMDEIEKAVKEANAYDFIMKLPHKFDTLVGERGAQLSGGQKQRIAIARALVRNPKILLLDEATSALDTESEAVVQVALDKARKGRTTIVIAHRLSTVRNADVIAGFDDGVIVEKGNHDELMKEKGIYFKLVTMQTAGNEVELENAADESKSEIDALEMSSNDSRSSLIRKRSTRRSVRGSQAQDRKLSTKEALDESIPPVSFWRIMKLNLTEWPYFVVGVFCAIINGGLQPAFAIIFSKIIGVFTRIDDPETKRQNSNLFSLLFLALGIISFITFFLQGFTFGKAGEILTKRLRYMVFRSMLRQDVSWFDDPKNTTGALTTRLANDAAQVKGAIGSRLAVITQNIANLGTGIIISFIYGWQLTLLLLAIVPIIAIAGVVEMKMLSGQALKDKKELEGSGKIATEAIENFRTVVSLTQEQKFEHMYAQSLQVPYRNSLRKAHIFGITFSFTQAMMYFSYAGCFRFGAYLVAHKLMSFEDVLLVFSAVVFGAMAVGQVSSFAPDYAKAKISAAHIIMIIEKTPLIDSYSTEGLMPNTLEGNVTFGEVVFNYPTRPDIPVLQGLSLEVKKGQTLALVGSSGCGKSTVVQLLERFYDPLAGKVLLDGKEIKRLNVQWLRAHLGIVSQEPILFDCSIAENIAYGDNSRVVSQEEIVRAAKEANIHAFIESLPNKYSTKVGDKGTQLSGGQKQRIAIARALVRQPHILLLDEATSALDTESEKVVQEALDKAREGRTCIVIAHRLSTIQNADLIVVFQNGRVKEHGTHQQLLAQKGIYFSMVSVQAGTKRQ

The Ki is the dissociation constant of the complex between target and ligand, obtained from inhibition or displacement. As usually defined, the IC50 is the concentration that gives 50% inhibition. High values mean weaker potency, low ones greater potency. What is called chromatographic logD is lipophilicity estimated from chromatographic retention. High values mean higher lipophilicity, low ones lower lipophilicity. For `N#C/C(=C\C=C\c1ccc2c(c1)OCO2)C(=O)OCc1ccccc1`, the “inhibition (INH)” value in data set [1], in [3], in [5] and in data set [11] was “Active” throughout. Besides, the Ki in [2] was 44.1 nM. The viability at 24 h, up to 50 µM in data set [4] and in data set [7] was above 85% each time. This compound also displayed a CHI in data set [6] of 96.73. In addition, the viability at 24 h in data set [8] and in data set [15] was above 85% throughout. Moreover, inhibition in data set [9] was half-maximal at 47.4 nM (IC50). Moreover, the Stability result in data set [10] is on record as “Stable”. The Ratio IC50 in the data set filed under Homo sapiens is above 211. Further, in data set [12], the inhibition at 10 µM is below 50%. Besides, the Retention_time in [13] was determined as 12.11 min. In [14], the chromatographic logD at 250 µM is 3.61.

Regarding `N#C/C(=C\C=C\c1ccc2c(c1)OCO2)C(=O)N1CCCCC1`, the Activity entry in data set [16] is listed as “Not Active”; with SH-SY5Y, 111.1%. Further, the Ki in data set [2] amounted to 20.6 nM. Also, the viability at 24 h, up to 50 µM in [4] and in data set [7] was above 85% each time. For the same compound, the “inhibition (INH)” value in [5] and in [11] was “Active” in each case. Further, the viability at 24 h in data set [8] and in [15] was above 85% in each case. The compound further displayed an IC50 in data set [9] of 143 nM. Besides, the Ratio IC50 in the data set filed under Homo sapiens was above 70. Besides, the inhibition at 10 µM in data set [12] was below 50%. Also, the result with Caco-2 was inactive.
